Source: patent US20110257258A1 (priority 2006, published 2011)

What was measured:
[1] = test system: H5N1; assay type: cell-based
[2] = test system: Avian Influenza virus; parameters: species or system Human; conditions: in vivo
[3] = test system: Avian Influenza virus; parameters: species or system Human; conditions: in vivo; remark: listed apart in the source

| Compound | inhibits H5N1 infections in mammalian cells by blocking the attachment and entry into the cells [1] | abatement of Avian Influenza symptoms [2] | recovery from the Avian Influenza illness [2] | adults in the test group developing Avian Influenza symptoms [3] |
| --- | --- | --- | --- | --- |
| O=C(O[C@@H]1Cc2c(O)cc(O)cc2O[C@@H]1c1cc(=O)c(O)c2c(O)c(O)cc([C@H]3Oc4cc(O)cc(O)c4C[C@H]3O)c2c1)c1cc(O)c(O)c(O)c1 [theaflavin-3-monogallate] | inhibits H5N1 infections | – | – | – |
| O=c1c(O)cc([C@H]2Oc3cc(O)cc(O)c3C[C@H]2O)cc2c([C@H]3Oc4cc(O)cc(O)c4C[C@H]3O)cc(O)c(O)c12 [theaflavin] | inhibits H5N1 infections | abate more rapidly than normal | fully recovers | None |
| (−)-epigallocatechin gallate [EGCG] | inhibits H5N1 infections | – | – | – |
| theaflavin-3,3′-digallate | inhibits H5N1 infections | – | – | – |
| theaflavin-3′-gallate | inhibits H5N1 infections | – | – | – |
